Data from ChEMBL document CHEMBL1201862, “PubChem BioAssay data set” (2004).
Active and inactive are the calls of the source.

Columns and labels:
[1] = target: T1, V-type proton ATPase subunit c' (Saccharomyces cerevisiae S288c, UniProt P32842); assay: Dose Response of Small Molecules that Regulate V-ATPase Proton Transport in Yeast using pHLuorin, Powder Set1.; format: functional; conditions: read-out: EC50_MICROM
[2] = target: T1, V-type proton ATPase subunit c'; assay: Dose Response with BCECF Assay for V-ATPase inhibitors that increase vacuolar pH, Powder Set 1.; format: functional; conditions: read-out: EC50_MICROM
[3] = target: Beta-adrenergic receptor kinase 1 (Homo sapiens, UniProt P25098); assay: aptamer displacement from bead-bound GRK2 – biochemical, cherry pick 1, bead flow cytometry, dose response (AID 504500)
[4] = target: T2, Carboxy-terminal domain RNA polymerase II polypeptide A small phosphatase 1 (Homo sapiens, UniProt Q9GZU7); assay: inhibitors of CTDSP1, concentration-response testing, biochemical assay, absorbance-based, actives from ultra-high-throughput screening (AID 540297); format: functional
T2 sequence (Q9GZU7 whole entry): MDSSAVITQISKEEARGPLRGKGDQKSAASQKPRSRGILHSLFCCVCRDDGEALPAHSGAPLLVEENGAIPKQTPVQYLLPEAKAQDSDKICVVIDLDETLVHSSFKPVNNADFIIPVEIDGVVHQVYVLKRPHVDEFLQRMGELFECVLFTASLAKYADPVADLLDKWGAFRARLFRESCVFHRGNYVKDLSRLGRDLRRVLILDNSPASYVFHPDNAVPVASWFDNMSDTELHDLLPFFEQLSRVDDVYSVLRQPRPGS

Phospholipase D1 = Phospholipase D1 (Homo sapiens, UniProt Q13393); assay: PLD1 inhibitor potency in cells, dose response (AID 602151); format: functional;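 note: cellular PLD1 assay in Calu-1 cells stimulated with PMA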
Phospholipase D2 = Phospholipase D2 (Homo sapiens, UniProt O14939); assay: PLD2 inhibitor potency in cells, dose response (AID 602147); format: functional;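 note: cellular assay in HEK293 cells overexpressing GFP-tagged PLD2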
[5] = Luminescence Cell-Based Dose Response Follow up to Identify Inhibitors of Platelet Dense Granule Release. [Related pubchem assays (depositor defined):AID1663, AID1678, AID2398]; format: functional
[6] = blockers of SFLLRN-triggered platelet ATP secretion – cell-based, human platelets, luminescence, dry powder, dose response (AID 493100); format: functional
Prothrombin = Prothrombin (Bos taurus, UniProt P00735); assay: thrombin inhibition, dose response, biochemical, fluorescence polarization, uHTS hits (AID 602369); format: functional
[7] = target: 72 kDa type IV collagenase (Homo sapiens, UniProt P08253); assay: Dose Response validation of uHTS RPN11 inhibitor hits using a MMP-2 Fluorescence assay.; format: functional
[8] = nonselective inhibitors of cellular cAMP signaling, dose response, counter-screen for MC4R biased antagonist project, cell-based, TR-FRET cAMP detection (AID 602305); format: functional;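 note: U2OS cells stimulated with forskolin near its EC80 as the cAMP inducer; potency is for inhibition of forskolin-stimulated cAMP signaling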
[9] = target: 26S proteasome non-ATPase regulatory subunit 14 (Homo sapiens, UniProt O00487); assay: inhibition of proteasome subunit RPN11 – biochemical, fluorescence polarization, uHTS hits, confirmation (AID 602368); format: functional
[10] = ADAM10 protease inhibitors, dose response, selectivity assay for ADAM17 exosite inhibitor project, biochemical, FRET peptide substrate, recombinant human ADAM10 (AID 743259);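 note: ADAM10 enzyme cleaving a FRET peptide substrate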
Melanocortin receptor 4 = Melanocortin receptor 4 (Homo sapiens, UniProt P32245); assay: MC4R antagonist potency on cAMP, dose response, cell-based, TR-FRET, biased antagonists (AID 602298); format: functional;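 note: antagonist potency against agonist-stimulated cAMP production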
[11] = target: Disintegrin and metalloproteinase domain-containing protein 17 (Homo sapiens, UniProt P78536); assay: exosite inhibitors of ADAM17, dose response, biochemical (AID 743260)
[12] = test system: Streptococcus sp. 'group A'; assay: growth inhibition of control SK(-) GAS strain, dose response, counter-screen for streptokinase expression inhibitor project, luminescence, kanamycin, BacTiterGlo, confirmation (AID 1900); format: functional, organism-based
Streptococcus = assay: Group A Streptococcus viability loss, dose response, counter-screen for streptokinase expression inhibitor project, luminescence, BacTiterGlo (AID 1915); format: functional, organism-based;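 note: potency for reduction of bacterial viability or growth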
Genome polyprotein = Genome polyprotein (dengue virus type 2, UniProt P29990); assay: Dengue-2 NS5 methyltransferase inhibitors, primary screen, biochemical, confirmation dose response (AID 588689); format: functional
DNA topoisomerase = DNA topoisomerase (Yersinia pestis, UniProt A0A2S9PM60); assay: Y. pestis Topo-I inhibitors, cleavage product readout, dose response, biochemical, cherry-pick (AID 588525)
Streptokinase A = target: T3, Streptokinase A (Streptococcus pyogenes serotype M1, UniProt P10520); assay: S. pyogenes streptokinase expression inhibitors, potency, dose response, plasminogen activation absorbance, OD405 (AID 1914); format: functional, Streptococcus pyogenes M1 GAS;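 note: secreted streptokinase activity via plasminogen activation per viability signal from cell pellet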
T3 sequence (P10520 whole entry): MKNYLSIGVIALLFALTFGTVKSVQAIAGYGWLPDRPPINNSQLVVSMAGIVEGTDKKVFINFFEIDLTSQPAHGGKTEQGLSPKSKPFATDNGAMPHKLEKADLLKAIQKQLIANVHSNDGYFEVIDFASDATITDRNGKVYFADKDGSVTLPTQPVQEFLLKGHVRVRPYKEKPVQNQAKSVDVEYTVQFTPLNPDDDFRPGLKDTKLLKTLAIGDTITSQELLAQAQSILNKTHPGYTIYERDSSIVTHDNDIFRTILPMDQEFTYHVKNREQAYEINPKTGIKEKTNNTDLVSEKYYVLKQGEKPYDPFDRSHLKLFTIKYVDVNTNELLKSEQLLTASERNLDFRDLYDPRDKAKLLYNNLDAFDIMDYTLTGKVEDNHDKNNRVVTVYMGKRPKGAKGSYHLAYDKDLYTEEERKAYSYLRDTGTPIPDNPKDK

Vero = Vero cell cytotoxicity, cytotoxicity control for flavivirus capping enzyme inhibitors (AID 588742); format: functional; conditions: Chlorocebus sabaeus
NS3 = NS3 (Hepatitis C virus, UniProt A3EZJ3); assay: PubChem AID 2173; parameters: species or system Hepacivirus hominis
[13] = target: T4, DNA dC->dU-editing enzyme APOBEC-3G (Homo sapiens, UniProt Q9HC16); assay: Dose Response confirmation of small molecule APOBEC3G DNA Deaminase Inhibitors via a fluorescence-based single-stranded DNA deaminase assay. [Related pubchem assays (depositor defined):AID493012, AID493028]; format: functional
[14] = target: T4, DNA dC->dU-editing enzyme APOBEC-3G; assay: SAR analysis of small molecule inhibitors of APOBEC3G DNA Deaminase via a fluorescence-based single-stranded DNA deaminase assay - Set 2.; format: functional; conditions: read-out: IC50_Mean
Large T antigen = Large T antigen (Simian virus 40, UniProt P03070); format: functional, Betapolyomavirus macacae;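 note: Confirmatory-stage PubChem screen for compounds that inhibit SV40 T antigen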
[15] = target: T5, DNA dC->dU-editing enzyme APOBEC-3A (Homo sapiens, UniProt P31941); assay: APOBEC3A DNA deaminase inhibitors, dose response, biochemical (AID 504722); format: functional
[16] = target: T5, DNA dC->dU-editing enzyme APOBEC-3A; assay: SAR analysis of small molecule inhibitors of APOBEC3A DNA Deaminase via a fluorescence-based single-stranded DNA deaminase assay - Set 2.; format: functional; conditions: read-out: IC50_Mean
[17] = target: T6, High affinity choline transporter 1 (Homo sapiens, UniProt Q9GZV3); assay: CHT inhibitors, dose response, cell-based, 10-point CRC, membrane potential dye (AID 588401); format: functional;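 note: membrane potential dye fluorescence of choline-evoked depolarization via CHT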
[18] = target: T6, High affinity choline transporter 1; assay: CHT inhibitors, dose response, cell-based, 5-point CRC, membrane potential dye (AID 504840); format: functional
[19] = target: Dual specificity mitogen-activated protein kinase kinase 1 (Homo sapiens, UniProt Q02750); assay: Navigating the Kinome. Panel member name: MAP2K1; format: functional
[20] = target: Tyrosine-protein kinase Fer (Homo sapiens, UniProt P16591); format: functional;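 note: FER tested as one member of a kinome panel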
[21] = target: Dual specificity mitogen-activated protein kinase kinase 2 (Homo sapiens, UniProt P36507); assay: Navigating the Kinome. Panel member name: MAP2K2; format: functional
[22] = target: STE20-like serine/threonine-protein kinase (Homo sapiens, UniProt Q9H2G2); format: functional
[23] = target: Tyrosine-protein kinase BTK (Homo sapiens, UniProt Q06187); format: functional
[24] = target: Fibroblast growth factor receptor 3 (Homo sapiens, UniProt P22607); format: functional
[25] = target: 5'-AMP-activated protein kinase catalytic subunit alpha-1 (Homo sapiens, UniProt Q13131); format: functional
[26] = target: Sphingosine 1-phosphate receptor 2 (Homo sapiens, UniProt O95136); assay: Late-stage fluorescence-based dose-response cell-based counterscreen assay to identify agonists of the Sphingosine 1-Phosphate Receptor 3 (S1P3): Sphingosine 1-Phosphate Receptor 2 (S1P2) agonist assay.; format: functional
[27] = target: T7, Sphingosine 1-phosphate receptor 4 (Homo sapiens, UniProt O95977); assay: Late-stage fluorescence-based dose-response cell-based counterscreen assay to identify agonists of the Sphingosine 1-Phosphate Receptor 3 (S1P3): Sphingosine 1-Phosphate Receptor 4 (S1P4) agonist assay.; format: functional
T7 sequence (O95977 whole entry): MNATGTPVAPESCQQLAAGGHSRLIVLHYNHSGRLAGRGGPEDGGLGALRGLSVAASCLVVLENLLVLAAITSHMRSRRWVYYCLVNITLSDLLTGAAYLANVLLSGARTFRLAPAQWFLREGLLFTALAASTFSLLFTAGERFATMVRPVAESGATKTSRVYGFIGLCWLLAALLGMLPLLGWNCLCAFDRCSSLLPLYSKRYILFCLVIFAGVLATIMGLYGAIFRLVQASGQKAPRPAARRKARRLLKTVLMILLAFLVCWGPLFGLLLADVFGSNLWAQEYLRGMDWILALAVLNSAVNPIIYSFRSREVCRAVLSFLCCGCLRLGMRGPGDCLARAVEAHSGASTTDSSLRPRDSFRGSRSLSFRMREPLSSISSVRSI

[28] = target: Serine/threonine-protein kinase Chk1 (Homo sapiens, UniProt O14757); format: functional;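 note: measured as one member of a kinome-wide kinase profiling panel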
[29] = target: Tyrosine-protein kinase JAK2 (Homo sapiens, UniProt O60674); format: functional;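 note: JAK2 tested as one member of a kinase panel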
[30] = target: Multidrug resistance protein CDR2 (Candida albicans (strain SC5314 / ATCC MYA-2876) (Yeast), UniProt P78595); assay: CaCDR2 efflux pump inhibitors in yeast, dose response, S. cerevisiae AD1-8u, singleplex, Cherry Pick1 hits (AID 588604); format: functional

T1 sequence (P32842 whole entry): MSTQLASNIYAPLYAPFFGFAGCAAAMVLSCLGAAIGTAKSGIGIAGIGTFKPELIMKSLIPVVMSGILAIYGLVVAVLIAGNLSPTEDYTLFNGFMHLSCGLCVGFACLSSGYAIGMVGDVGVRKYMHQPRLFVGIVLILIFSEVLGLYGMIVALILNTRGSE
T6 sequence (Q9GZV3 whole entry): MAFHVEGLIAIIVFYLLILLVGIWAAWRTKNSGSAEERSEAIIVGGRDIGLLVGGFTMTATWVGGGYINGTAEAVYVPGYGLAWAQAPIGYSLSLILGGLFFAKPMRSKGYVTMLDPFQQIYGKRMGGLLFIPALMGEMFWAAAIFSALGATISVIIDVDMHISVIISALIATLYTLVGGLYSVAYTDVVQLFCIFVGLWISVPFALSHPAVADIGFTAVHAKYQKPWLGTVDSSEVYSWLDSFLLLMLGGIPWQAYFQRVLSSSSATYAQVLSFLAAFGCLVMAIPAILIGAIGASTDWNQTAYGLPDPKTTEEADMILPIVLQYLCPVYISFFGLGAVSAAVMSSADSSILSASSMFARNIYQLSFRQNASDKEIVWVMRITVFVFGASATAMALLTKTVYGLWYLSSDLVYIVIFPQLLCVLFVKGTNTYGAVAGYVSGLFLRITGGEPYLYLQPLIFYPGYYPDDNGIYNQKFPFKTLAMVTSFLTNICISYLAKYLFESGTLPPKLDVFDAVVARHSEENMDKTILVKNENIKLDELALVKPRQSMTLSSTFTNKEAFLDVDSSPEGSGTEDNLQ
T4 sequence (Q9HC16 whole entry): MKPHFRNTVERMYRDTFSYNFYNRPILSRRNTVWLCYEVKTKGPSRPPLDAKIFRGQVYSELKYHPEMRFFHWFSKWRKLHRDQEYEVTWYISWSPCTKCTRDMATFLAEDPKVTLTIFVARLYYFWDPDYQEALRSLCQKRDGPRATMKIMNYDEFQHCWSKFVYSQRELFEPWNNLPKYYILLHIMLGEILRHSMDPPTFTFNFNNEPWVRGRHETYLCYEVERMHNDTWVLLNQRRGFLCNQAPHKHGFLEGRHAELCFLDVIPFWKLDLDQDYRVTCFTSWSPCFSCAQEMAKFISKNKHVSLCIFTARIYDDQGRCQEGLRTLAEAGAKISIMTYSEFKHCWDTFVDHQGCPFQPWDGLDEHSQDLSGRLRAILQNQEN
T5 sequence (P31941 whole entry): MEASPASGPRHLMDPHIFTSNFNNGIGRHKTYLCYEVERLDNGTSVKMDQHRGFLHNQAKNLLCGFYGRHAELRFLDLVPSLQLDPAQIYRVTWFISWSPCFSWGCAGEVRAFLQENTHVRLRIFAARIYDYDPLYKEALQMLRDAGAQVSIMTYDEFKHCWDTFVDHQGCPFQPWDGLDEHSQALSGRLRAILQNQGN
Chain of Tyrosine-protein kinase Fer (P16591 whole entry): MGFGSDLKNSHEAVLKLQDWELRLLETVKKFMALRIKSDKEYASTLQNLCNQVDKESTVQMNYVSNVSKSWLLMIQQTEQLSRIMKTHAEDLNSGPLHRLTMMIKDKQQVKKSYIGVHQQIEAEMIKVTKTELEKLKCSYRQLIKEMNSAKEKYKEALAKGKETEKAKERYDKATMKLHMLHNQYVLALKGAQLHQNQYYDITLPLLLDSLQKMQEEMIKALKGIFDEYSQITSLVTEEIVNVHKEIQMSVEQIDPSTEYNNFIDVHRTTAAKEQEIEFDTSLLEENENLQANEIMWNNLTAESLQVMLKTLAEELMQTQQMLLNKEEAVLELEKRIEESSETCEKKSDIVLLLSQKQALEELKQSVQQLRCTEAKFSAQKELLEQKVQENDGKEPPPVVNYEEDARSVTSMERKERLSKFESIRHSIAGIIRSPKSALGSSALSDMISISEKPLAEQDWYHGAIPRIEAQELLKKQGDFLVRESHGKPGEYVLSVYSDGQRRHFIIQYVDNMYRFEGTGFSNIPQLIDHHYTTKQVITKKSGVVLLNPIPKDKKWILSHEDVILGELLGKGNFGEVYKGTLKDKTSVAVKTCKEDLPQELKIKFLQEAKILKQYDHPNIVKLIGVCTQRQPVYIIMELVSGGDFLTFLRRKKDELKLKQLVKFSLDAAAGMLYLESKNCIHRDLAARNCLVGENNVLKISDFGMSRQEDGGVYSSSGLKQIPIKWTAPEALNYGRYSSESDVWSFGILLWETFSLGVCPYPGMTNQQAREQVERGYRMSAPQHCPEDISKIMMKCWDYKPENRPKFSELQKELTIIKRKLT
Chain of 5'-AMP-activated protein kinase catalytic subunit alpha-1 (Q13131 whole entry): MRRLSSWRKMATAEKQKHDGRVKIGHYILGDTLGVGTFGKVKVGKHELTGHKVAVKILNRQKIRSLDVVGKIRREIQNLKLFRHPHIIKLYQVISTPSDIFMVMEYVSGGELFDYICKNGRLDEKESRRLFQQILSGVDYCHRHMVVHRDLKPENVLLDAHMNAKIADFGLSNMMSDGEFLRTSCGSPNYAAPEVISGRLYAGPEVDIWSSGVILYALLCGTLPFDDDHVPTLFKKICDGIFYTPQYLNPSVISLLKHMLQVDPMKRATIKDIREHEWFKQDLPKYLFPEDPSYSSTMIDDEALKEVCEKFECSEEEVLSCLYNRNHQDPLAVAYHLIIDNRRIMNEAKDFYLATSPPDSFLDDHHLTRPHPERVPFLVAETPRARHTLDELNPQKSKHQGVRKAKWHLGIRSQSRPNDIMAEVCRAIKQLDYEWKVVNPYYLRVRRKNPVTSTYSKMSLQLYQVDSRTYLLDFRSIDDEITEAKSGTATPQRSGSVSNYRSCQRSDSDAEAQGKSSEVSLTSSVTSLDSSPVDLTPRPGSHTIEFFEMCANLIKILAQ
Chain of DNA topoisomerase (A0A2S9PM60 whole entry): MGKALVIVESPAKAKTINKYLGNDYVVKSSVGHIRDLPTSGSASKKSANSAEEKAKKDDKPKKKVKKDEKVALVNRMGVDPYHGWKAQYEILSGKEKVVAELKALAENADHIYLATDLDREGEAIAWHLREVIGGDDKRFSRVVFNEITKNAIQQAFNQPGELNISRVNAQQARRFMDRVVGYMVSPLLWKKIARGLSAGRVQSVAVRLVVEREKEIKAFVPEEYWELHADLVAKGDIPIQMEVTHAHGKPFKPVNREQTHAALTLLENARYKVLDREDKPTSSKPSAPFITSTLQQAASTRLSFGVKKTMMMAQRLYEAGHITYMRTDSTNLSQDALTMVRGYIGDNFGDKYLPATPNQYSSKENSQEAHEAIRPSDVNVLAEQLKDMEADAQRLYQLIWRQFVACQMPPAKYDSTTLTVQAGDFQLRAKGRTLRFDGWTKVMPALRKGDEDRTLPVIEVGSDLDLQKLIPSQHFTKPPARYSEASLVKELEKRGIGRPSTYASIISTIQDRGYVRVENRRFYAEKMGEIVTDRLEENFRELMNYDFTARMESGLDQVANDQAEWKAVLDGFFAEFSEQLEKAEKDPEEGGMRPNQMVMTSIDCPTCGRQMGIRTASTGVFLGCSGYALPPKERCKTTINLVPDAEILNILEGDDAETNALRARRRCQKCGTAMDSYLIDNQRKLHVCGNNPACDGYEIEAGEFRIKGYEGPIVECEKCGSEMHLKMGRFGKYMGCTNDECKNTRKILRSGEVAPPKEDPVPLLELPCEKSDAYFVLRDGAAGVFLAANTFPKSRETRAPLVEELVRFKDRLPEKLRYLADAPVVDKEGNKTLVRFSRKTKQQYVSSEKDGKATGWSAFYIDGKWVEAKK
Chain of Sphingosine 1-phosphate receptor 2 (O95136 whole entry): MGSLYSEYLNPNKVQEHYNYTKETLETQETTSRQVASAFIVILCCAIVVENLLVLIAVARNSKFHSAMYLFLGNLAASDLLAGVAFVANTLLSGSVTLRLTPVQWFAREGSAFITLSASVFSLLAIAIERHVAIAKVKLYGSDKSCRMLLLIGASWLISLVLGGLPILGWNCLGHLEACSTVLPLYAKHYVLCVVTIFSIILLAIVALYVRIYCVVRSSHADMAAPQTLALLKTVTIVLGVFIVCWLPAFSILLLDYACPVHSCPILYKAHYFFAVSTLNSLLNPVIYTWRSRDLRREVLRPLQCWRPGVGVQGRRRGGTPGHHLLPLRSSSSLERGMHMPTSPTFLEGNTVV
Chain of Phospholipase D2 (O14939 whole entry): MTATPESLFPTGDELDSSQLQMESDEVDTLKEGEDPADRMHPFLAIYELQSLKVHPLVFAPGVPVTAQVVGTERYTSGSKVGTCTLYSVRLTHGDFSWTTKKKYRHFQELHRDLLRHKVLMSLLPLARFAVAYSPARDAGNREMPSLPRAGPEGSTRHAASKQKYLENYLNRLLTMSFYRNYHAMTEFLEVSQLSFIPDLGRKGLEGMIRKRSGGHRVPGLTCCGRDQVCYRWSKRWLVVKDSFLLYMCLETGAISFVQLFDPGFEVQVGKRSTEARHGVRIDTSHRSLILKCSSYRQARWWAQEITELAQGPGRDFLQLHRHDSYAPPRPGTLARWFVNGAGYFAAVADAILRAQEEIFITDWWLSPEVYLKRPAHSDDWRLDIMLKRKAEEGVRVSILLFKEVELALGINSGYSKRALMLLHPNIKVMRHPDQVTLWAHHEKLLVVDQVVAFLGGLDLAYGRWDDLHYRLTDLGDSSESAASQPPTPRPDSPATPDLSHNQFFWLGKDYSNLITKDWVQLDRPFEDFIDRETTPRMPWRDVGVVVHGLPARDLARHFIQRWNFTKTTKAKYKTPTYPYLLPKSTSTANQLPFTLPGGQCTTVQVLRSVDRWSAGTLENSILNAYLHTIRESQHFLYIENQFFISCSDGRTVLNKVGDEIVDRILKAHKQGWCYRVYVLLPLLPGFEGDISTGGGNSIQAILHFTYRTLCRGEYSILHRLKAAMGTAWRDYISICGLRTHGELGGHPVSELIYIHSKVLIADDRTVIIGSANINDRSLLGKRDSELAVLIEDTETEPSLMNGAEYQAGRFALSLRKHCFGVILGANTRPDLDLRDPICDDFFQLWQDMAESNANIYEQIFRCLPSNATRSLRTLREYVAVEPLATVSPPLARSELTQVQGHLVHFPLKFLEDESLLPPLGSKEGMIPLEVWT

Structure (SMILES): O=C(c1ccc([N+](=O)[O-])o1)N1CCN(c2cccc(Cl)c2)CC1
- EC50 [1]: 12.4 µM (active)
- EC50 [2]: 1.25 µM (active)

Structure (SMILES): O=C(O)C1CC(=O)N(c2ccc3c(c2)OCCO3)C1 (stereo unspecified)
- EC50 [3]: 30.9 µM (inactive)
- IC50 [4]: 6.73 µM (active)

Structure (SMILES): Cn1c(=O)n(C2CCN(CCNC(=O)c3ccc4ccccc4c3)CC2)c2ccccc21
- IC50 (Phospholipase D1): 1.5 µM (active)
- IC50 (Phospholipase D2): 1.9 µM (active)

Structure (SMILES): Cc1ccc(-c2c(C#N)c(N)n(-c3ccccc3C)c(=O)c2C#N)cc1
- EC50 [5]: 2.03 µM (active)
- AC50 [6]: 12.6 µM (active)

Structure (SMILES): O=C(NN=Cc1ccc(N(CCCl)CCCl)cc1)C(=O)c1c[nH]c2ccccc12
- IC50 (Prothrombin): 45.1 µM (active)
- IC50 [7]: > 100 µM (inactive)
- IC50 [8]: > 64.6 µM (inactive)
- IC50 [9]: 25.5 µM (active)
- IC50 [10]: > 69.5 µM (inactive)
- IC50 (Melanocortin receptor 4): > 64.6 µM (inactive)
- IC50 [11]: > 69.5 µM (inactive)

Structure (SMILES): CCCOc1ccc(C(=O)C2=C(O)C(=O)N(c3ccccn3)C2c2ccc(OC)cc2)cc1C (stereo unspecified)
- EC50 [12]: 3.78 µM (active)
- EC50 (Streptococcus): 38.6 µM (active)
- IC50 (Genome polyprotein): 74.3 µM (active)
- AC50 (DNA topoisomerase): 5.07 µM (active)
- EC50 (Streptokinase A): 103 µM (active)
- CC50 (Vero): > 40 µM (active)
- IC50 (NS3): 5.74 µM (active)

Structure (SMILES): CCCn1c(=O)c2ccccc2n2c(=S)[nH]nc12
- IC50 [13]: 2.87 µM (active)
- IC50 [14]: > 99 µM (inactive)
- IC50 (Large T antigen): 18.2 µM (active)
- IC50 [15]: > 100 µM (inactive)
- IC50 [16]: > 99 µM (inactive)

Structure (SMILES): CCCCC1C(=O)CC[C@H]2[C@@H]1CC(=O)[C@@H]2C/C=C\CCCC(=O)O (stereo partly specified)
- IC50 [17]: 2.38 µM (active)
- IC50 [18]: 2.13 µM (active)

Structure (SMILES): Cc1cc(Nc2cc(N3CCN(C)CC3)nc(C=Cc3ccccc3)n2)n[nH]1
- Ki [19]: 0.501 µM (active)
- Ki [20]: 0.316 µM (active)
- Ki [21]: 0.316 µM (active)
- Ki [22]: 0.501 µM (active)
- Ki [23]: 0.501 µM (active)
- Ki [24]: 0.1 µM (active)
- Ki [25]: 0.501 µM (active)

Structure (SMILES): COc1ccc(-c2cc(C(=O)N(C3CCCCC3)C3CCCCC3)no2)cc1
- EC50 [26]: > 50 µM (inactive)
- EC50 [27]: > 50 µM (inactive)

Structure (SMILES): COc1cc(OC)nc(N2Cc3ccccc3CC2C(=O)O)n1 (stereo unspecified)
- Ki [28]: 0.794 µM (active)
- Ki [29]: 2.51 µM (active)

Structure (SMILES): COc1ccc2c(-c3ccc(OCCN4CCOCC4)cc3)c(-c3ccccc3OC)sc2c1
- EC50 [30]: 13.3 µM (active)
